Results as given in patent publication US8580814B2, “Methods of using (+)-1,4-dihydro-7-[(3S,4S)-3-methoxy-4-(methylamino)-1-pyrrolidinyl]-4- oxo-1-(2-thiazolyl)-1,8-naphthyridine-3-carboxylic acid for treatment of cancer” (priority 2006, dated 2013).
In brackets after ≈: the same amount, converted by molar mass. Marks after values point to notes of the source that are not given here. One block for each molecule: values may come before it.

Columns and labels:
[1] = tested on: HCT-116 cells with 6 fold lower ATR levels; experiment: MTT assay, sensitization (ATRFLOX); type: cell-based; conditions: compound 72 hours
Method: (§1) Cells were then incubated with 5% MTT for 1-2 hours and lysed. MTT was colorimetrically read at 570 nm and EC50's were determined using linear regression analysis.
(§2) Sensitization was carried out with various chemical treatments.

[2] = tested on: MO59J (DNAPKcs(−/−)) vs MO59K (DNAPKCs(+/+)); experiment: MTT assay, sensitization (DNAPKcs(−/−)); type: cell-based; conditions: MO59J (DNAPKcs(−/−)) vs MO59K (DNAPKCs(+/+)); compound 72 hours
Method: as §1, §2

[3] = tested on: HCT-116 cells treated with 2 mM caffeine; experiment: MTT assay, sensitization (caffeine); type: cell-based; conditions: 2 mM caffeine pre-treated for 16 hours, compound 72 hours
Method: as §1, §2

[4] = tested on: CCRF-CEM (lymphoblastic leukemia); experiment: MTT cell viability assay, leukemia cells; type: cell-based; conditions: Homo sapiens, MTT after 72 hours
Method: (§3) The following cell lines were used in this assay: HL-60 (promyelocytic leukemia); Jurkat (T cell leukemia); CCRF-CEM (lymphoblastic leukemia); CEM/C2 (camptothecan resistant derivative of CCRF-CEM). Cells were seeded in 96 wells plates at 3000 cells per well and incubated for 16 hours. […] Titrations were diluted 1:100 in media to achieve final compound concentrations. The 96 well plates were aspirated and compound dilutions in media were added ([…]). MTT analysis was carried out after 72 hours of incubation at 37° C. Briefly, […] of MTT solution was added to each well. Cells were incubated at 37° C. for 1-2 hours. […] Plates were read on a spectromax machine with an absorbance measurement at […]. IC50's were calculated (data provided in Table 13) using regression analysis within GraphPad Prism.

[5] = tested on: CEM/C2 (camptothecan resistant derivative of CCRF-CEM); experiment: MTT cell viability assay, leukemia cells; type: cell-based; conditions: Homo sapiens; CEM/C2, MTT after 72 hours
Method: as §3

[6] = tested on: HL-60 (promyelocytic leukemia); experiment: MTT cell viability assay, leukemia cells; type: cell-based; conditions: Homo sapiens; HL-60, MTT after 72 hours
Method: as §3

[7] = tested on: CCRF-CEM acute lymphoblastic leukemia tumor; experiment: CCRF-CEM xenograft model; type: in vivo, nude mice
Method: CCRF-CEM acute lymphoblastic leukemia tumor lobes of 2-3 mm square were transplanted subcutaneously into nude mice. Tumors were allowed to grow to approximately 8-20 mm in diameter. […] Acceptable toxicity was defined as a mean group weight loss of 30% or less and not more than one toxic death among 6 treated animals. Anti-tumor activities of the drugs were assessed 20 or 21 days after the start of administration. Table 14 provides data for tumor inhibition (TI) and survival rate in the CCRF-CEM and LM3-Jck xenograft models.

[8] = tested on: LM3-Jck human malignant lymphoma tumor; experiment: LM3-Jck xenograft model; type: in vivo, nude mice
Method: LM3-Jck human malignant lymphoma tumor lobes (2-3 mm square) were transplanted subcutaneously into nude mice. Tumors were allowed to grow to approximately 7-14 mm in diameter. […] Acceptable toxicity was defined as a mean group weight loss of 30% or less and not more than one toxic death among 6 treated animals. Anti-tumor activities of the drugs were assessed 21 days after the start of administration.

SMILES: CC[C@@]1(O)C(=O)OCc2c1cc1n(c2=O)Cc2cc3ccccc3nc2-1 [Camptothecin, reference compound]
Sensitization, fold decrease in the EC50 for cytotoxicity (MTT): ATRFLOX [1]: 5 fold
Sensitization, fold decrease in the EC50 for cytotoxicity (MTT): DNAPKcs(−/−) [2]: 0.7 fold
Sensitization, fold decrease in the EC50 for cytotoxicity (MTT): Caffeine [3]: 6 fold

IC50 [4]: 0.003 µg/mL (≈ 0.00552 µM)
IC50 [5]: 0.017 µg/mL (≈ 0.0313 µM)
IC50 [6]: 0.024 µg/mL (≈ 0.0442 µM)
SMILES: COc1cccc2c1C(=O)c1c(O)c3c(c(O)c1C2=O)C[C@@](O)(C(=O)CO)C[C@@H]3O[C@H]1C[C@H](N)[C@H](O)[C@H](C)O1 [Doxorubicin, doxorubicin, reference compound]
IR (%) (tumor inhibition rate) ([7]; q7d X3, IV, 12 mg/kg): 50.3* %
IR (%) (tumor inhibition rate) ([8]; LM3-JcK, q7d X3, IV, 12 mg/kg): 57.2* %
Survival Ratio ([8]; nude, mouse, in vivo, iv, 12 mg/kg, 21 days): 6/6

SMILES: COc1cc([C@@H]2c3cc4c(cc3[C@@H](O[C@@H]3O[C@@H]5CO[C@@H](C)O[C@H]5[C@H](O)[C@H]3O)[C@H]3COC(=O)[C@H]23)OCO4)cc(OC)c1O [Etoposide, etoposide, reference compound]
IR (%) (tumor inhibition rate) ([7]; qd X 5, IV, 12 mg/kg): 28.3%
IR (%) (tumor inhibition rate) ([8]; LM3-JcK, qd X 5, IV, 12 mg/kg): 3.0%

SMILES: CCc1c2c(nc3ccc(OC(=O)N4CCC(N5CCCCC5)CC4)cc13)-c1cc3c(c(=O)n1C2)COC(=O)[C@]3(O)CC [Irinotecan, irinotecan, reference compound]
IR (%) (tumor inhibition rate) ([7]; q4d x3, IV, 100 mg/kg): 99.7* %
Survival Ratio ([7]; q4d x3, IV, 100 mg/kg): 5/6
IR (%) (tumor inhibition rate) ([8]; LM3-JcK, q4d x3, IV, 100 mg/kg): 97.7* %
Survival Ratio ([8]; LM3-JcK, q4d x3, IV, 100 mg/kg): 6/6
